Laboratory results as given in patent publication US8354414B2, “Substituted bicyclic pyrimidines” (Cephalon, Inc, priority 2006, dated 2013).
pIC50: −log10 of the molar value.

Tests used:
CDK5/GST-p25 = molecular target: T1, CDK5/GST-p25 (Homo sapiens, UniProt Q00535); assay: Inhibition of CDK5/GST-p25 kinase activity (ELISA with time-resolved fluorescence readout); type: biochemical
T1 construct: The final construct, encoding for full-length human CDK5; made in house; host or cells: Sf21 insect cells (baculovirus co-infection)
T1 sequence (Q00535 whole entry): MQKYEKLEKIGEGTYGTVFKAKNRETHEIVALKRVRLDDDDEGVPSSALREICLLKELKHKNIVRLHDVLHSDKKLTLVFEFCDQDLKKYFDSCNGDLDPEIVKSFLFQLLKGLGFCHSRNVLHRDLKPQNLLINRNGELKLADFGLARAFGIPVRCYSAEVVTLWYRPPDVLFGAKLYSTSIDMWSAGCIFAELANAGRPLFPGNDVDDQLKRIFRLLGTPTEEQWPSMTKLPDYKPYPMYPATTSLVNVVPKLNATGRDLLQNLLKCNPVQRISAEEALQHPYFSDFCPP
T1 sequence (Q15078 108-307 partner limits assumed): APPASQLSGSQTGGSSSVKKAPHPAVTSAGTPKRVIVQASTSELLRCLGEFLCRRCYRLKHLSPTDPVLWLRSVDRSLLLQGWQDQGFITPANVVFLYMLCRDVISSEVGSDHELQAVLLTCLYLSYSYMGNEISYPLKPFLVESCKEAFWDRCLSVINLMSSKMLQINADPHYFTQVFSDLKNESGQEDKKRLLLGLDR
Method in brief: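 Sf21-coexpressed full-length human CDK5 with GST-p25 (p35 aa 108-307), glutathione-purified, at 2 ng/ml was reacted for 20 min at 37 °C on plate-coated GST-Rb(773-928). Buffer was 20 mM HEPES pH 7.2, 10 µM ATP, 10 mM MgCl2 and 2.5% DMSO. Phospho-Rb Ser-780 was detected by Eu-labelled antibody TRF, and IC50 curves were fitted.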

His6-GSK-3β = molecular target: T2, His6-GSK-3β (Homo sapiens, UniProt P49841); assay: Inhibition of His6-GSK-3β kinase activity (ELISA-based format, time-resolved fluorescence readout); type: biochemical; settings: class symbols; read-out: GSK3β IC50
T2 construct: made in house; host or cells: Sf21 insect cells (baculovirus)
T2 sequence (P49841 2-419): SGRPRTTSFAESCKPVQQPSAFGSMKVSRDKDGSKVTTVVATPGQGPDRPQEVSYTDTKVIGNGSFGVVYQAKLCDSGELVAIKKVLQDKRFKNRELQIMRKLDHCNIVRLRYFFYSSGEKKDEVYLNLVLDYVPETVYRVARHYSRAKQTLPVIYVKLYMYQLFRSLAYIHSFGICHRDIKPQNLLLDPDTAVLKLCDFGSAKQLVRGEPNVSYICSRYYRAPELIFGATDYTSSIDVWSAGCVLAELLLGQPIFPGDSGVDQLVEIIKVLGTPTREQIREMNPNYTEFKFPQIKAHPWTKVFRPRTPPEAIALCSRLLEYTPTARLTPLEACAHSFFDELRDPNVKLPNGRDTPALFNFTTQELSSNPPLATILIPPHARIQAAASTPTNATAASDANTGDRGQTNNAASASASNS
Method in brief: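 N-terminal His6-tagged full-length human GSK-3β (aa 2-419) expressed in Sf21 cells, 200 ng/ml, phosphorylating plate-coated GST-Rb with 20 μM ATP in pH 7.2 HEPES buffer, 30 min at 37° C. Phospho-Rb (Ser-780) detected by antibody plus Eu-labelled secondary, time-resolved fluorescence; IC50 from curves.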

| pIC50 (CDK5/GST-p25; numeric bounds) | melting point [°C] | pIC50 (His6-GSK-3β) | pIC50 (CDK5/GST-p25; class symbols) | SMILES |
| --- | --- | --- | --- | --- |
| < 5.52 | 287 to 290 | < 5.00 | – | O=C1Nc2ccc(Br)cc2C1c1ncnc2c1cnn2C1CCCC1 (stereo not drawn) [Example 54, 5-Bromo-3-(1-cyclopentyl-1H-pyrazolo[3,4-d]pyrimidin-4-yl)-1,3-dihydro-indol-2-one] |
| – | 285 to 290 | > 6.52 | > 6.52 | O=C1Nc2ccc(Br)cc2C1c1ncnc2nn(C3CCCCC3)cc12 (stereo not drawn) [Example 46, 5-Bromo-3-(2-cyclohexyl-2H-pyrazolo[3,4-d]pyrimidin-4-yl)-1,3-dihydro-indol-2-one] |
| – | 282 to 287 | > 6.52 | > 6.52 | CC(C)Cn1cc2c(C3C(=O)Nc4ccc(Br)cc43)nc(NCCN3CCOCC3)nc2n1 (stereo not drawn) [Example 264, 5-Bromo-3-[2-isobutyl-6-(2-morpholin-4-yl-ethylamino)-2H-pyrazolo[3,4-d]pyrimidin-4-yl]-1,3-dihydro-indol-2-one] |
| – | 293 to 294 | > 6.52 | > 6.52 | CCOCCn1cc2c(C3C(=O)Nc4ccc(Cl)cc43)nc(NCCN3CCOCC3)nc2n1 (stereo not drawn) [Example 217, 5-Chloro-3-[2-(2-ethoxy-ethyl)-6-(2-morpholin-4-yl-ethylamino)-2H-pyrazolo [3,4-d]pyrimidin-4-yl]-1,3-dihydro-indol-2-one] |
| < 5.52 | > 300 | < 5.00 | – | N#Cc1ccc2c(c1)NC(=O)C2c1ncnc2c1cnn2C1CCCCC1 (stereo not drawn) [Example 69, 3-(1-Cyclohexyl-1H-pyrazolo[3,4-d]pyrimidin-4-yl)-2-oxo-2,3-dihydro-1H-indole-6-carbonitrile] |
